Key:
subjects with dry eye = assay: Tear film break up time (TFBUT), Example 1 clinical study; assay type: in vivo, human; details: for Tear Film Break Up Time, change from baseline (mean): visit 2 (baseline) to visit 5, 0.05% and 0.1% groups pooled; for Tear Film Break Up Time, Mean Difference between Tβ4 and Placebo (Tβ4-Placebo): visit 2 to visit 5
Description: As used herein, the terms “tear breakup time” or “TBUT” or “tear film breakup time” or “TFBUT” can refer to a clinical test that measures the interval between the individual's last complete blink and the breakup of the tear film. The test can be used to assess for DES. To measure TBUT, fluorescein is instilled into the patient's tear film and the patient is asked not to blink while the tear film is observed under a broad beam of cobalt blue illumination. The TBUT is recorded as the number of seconds that elapse between the last blink and the appearance of the first dry spot in the tear film.
The presently disclosed subject matter also provides for methods of improving tear film stability. Tear film stability can be evaluated by various assessments in the art, including but not limited to a TFBUT analysis. […] In order to achieve maximum fluorescence, an appropriate waiting period is implemented after instillation before evaluating TFBUT. With the aid of a slit-lamp, the integrity of the tear film can be monitored by noting the time it takes to form […] from the time that the eye is opened. TFBUT can be measured in seconds using a stopwatch and a digital image recording system for one eye followed by the second eye. A negative test result is normal, whereby more than about 10 seconds of TFBUT is recorded.
This study was a multicenter, randomized, double-masked study designed to evaluate the efficacy and safety of 0.05% and 0.1% Tβ4 ophthalmic solution compared to placebo in subjects with dry eye.
The study consisted of two periods: a 7-day run-in period and a 28-day treatment period.
The clinical dosage form and packaging of Tβ4 ophthalmic solution and the placebo ophthalmic solutions were identical sterile, low-density polyethylene unit-dose non-preserved bottles. They were packaged in foil-wrap pouches to prevent light exposure, each containing single-use bottles. Throughout the study, between day 1 and day 29, patients were instructed to instill one drop of study medication in each eye four times daily, once in the morning, noon, afternoon and in the evening before bed. Patients were assigned randomization kit numbers in strict numerical sequence, using a code generated by an independent biostatistician. All investigators, study and site personnel, and patients were masked to the treatment assignments.
Patients were evaluated on day 8 (visit 3), day 15 (visit 4), and day 29 (visit 5) during the dosing period. Exposure to the CAE occurred on days 14 and 28. At each study visit, a panel of dry eye signs and symptoms and safety measures were evaluated (including both before [pre-CAE] and after [post-CAE] exposure).

[1] = injectable solution, 14 consecutive days, four escalating dose levels; cited from earlier work
[2] = higher tear film stability group
[3] = lower tear film stability group

Substance: thymosin beta 4 [Tβ4]
- Tear Film Break Up Time, change from baseline (mean) (subjects with dry eye; [2]): 0.14 s
- Tear Film Break Up Time, Mean Difference between Tβ4 and Placebo (Tβ4-Placebo) (subjects with dry eye; [2]): 0.09 s
- Tear Film Break Up Time, change from baseline (mean) (subjects with dry eye; [3]): 0.74 s
- Tear Film Break Up Time, Mean Difference between Tβ4 and Placebo (Tβ4-Placebo) (subjects with dry eye; [3]): 0.20 s
- safety and tolerability [1]: safe and well-tolerated

From patent US20210213103A1, “METHODS OF TREATING DRY EYE SYNDROME” (REGENTREE, LLC, priority 2016, published 2021)
